What was measured:
Type in all cases: in vivo
[1] = system: purebred beagle puppies; test: Maze test of the ability of puppies to learn in a training environment (success criteria); conditions: puppy and maternal animal
Experimental: (§1) A study is conducted to determine effect of compositions described herein upon the ability of puppies to learn in a training environment.
Ten purebred beagle puppies are randomized and assigned to Group 1 (n=3), Group 2 (n=3), or Group 3 (n=4). Each of the puppies is about nine weeks of age. Their respective weights are appropriate for age and body size.
Three treatment compositions are utilized for the study. These compositions are: 1) for Group 1, a nutritionally balanced food composition comprising an essential fatty acid component comprising about 0.14% DHA, by weight of the composition; 2) for Group 2, a nutritionally balanced food composition which is similar in all respects except that the essential fatty acid component comprises about 0.08% DHA, by weight of the composition; and 3) for Group 3, a nutritionally balanced food composition which is similar in all respects except that the essential fatty acid component comprises about 0.02% DHA, by weight of the composition.
(§2) The respective maternal animal for each puppy in Group 1 receives, ad libitum, a nutritionally balanced food composition comprising an essential fatty acid component comprising about 0.14% DHA, by weight of the composition, during gestation, nursing, or weaning (or any combination thereof) of such puppy.
as §2, with “2” for “1”, “0.08%” for “0.14%”
as §2, with “3” for “1”, “0.02%” for “0.14%”
Throughout the study, the puppies are fed their respective compositions twice daily. Treats are utilized for training purposes; the treats which are used are PURINA® Puppy Canned Formula.
The study utilizes a room having a maze constructed in general accordance with the maze illustrated in FIG. 2. Referring now to FIG. 2, Point A Crate is a starting area and contains a crate with a door that cannot be seen through. This crate door is easily opened by a study technician. The crate allows immediate entrance into the maze when the door is opened. The crate door is opened either upward or flat, or by some other means such that the maze path is not obstructed. Point B Maze Symbol contains one of two symbols (i.e., a circle and square) indicating to the trained puppy where the treat will be located. The symbol is attached at a height which is easily visualized by the puppy. Point C Treat Pan is the ending location where the treat pan will be located. Point C Treat Pan is the correct designation for a maze designated left. Point D Treat Pan is the ending location where another treat pan will be located. Point D Treat Pan is the correct designation for a maze designated right.
Prior to training, each puppy is randomly assigned two symbol-direction combinations. The possible groupings are identified below as Groups A and B:
Training with assistance takes place for one week. Each puppy is trained in accordance to whether it is a Group A puppy or a Group B puppy. For Group A puppies, the puppy is trained numerous times to learn that if a treat is placed on the circle at Point B Maze Symbol, then another treat is located to the right at Point D Treat Pan. Likewise, for Group A puppies, the puppy is trained the same number of time to learn that if a treat is placed on the square at Point B Maze Symbol, then another treat is located to the left at Point C Treat Pan. Group B puppies will follow this same outline with the exception that sessions with a circle as the symbol will go to the left and a square as the symbol will go right. […]

[2] = system: purebred beagle puppies; test: Three-door location training test (assigned door); conditions: all puppies regardless of group (0.18% DHA or 0.02% DHA food composition, ad libitum)
Experimental: as §1
(§3) Twelve purebred beagle puppies are randomized and assigned to either Group 1 or Group 2. Each of Groups 1 and 2 contains six of the puppies. Each of the puppies is about nine weeks of age. Their respective weights are appropriate for age and body size.
(§4) Two treatment compositions are utilized for the study. These compositions are: 1) for Group 1, a nutritionally balanced food composition comprising an essential fatty acid component comprising 0.18% DHA, by weight of the composition; and 2) for Group 2, a nutritionally balanced food composition which is similar in all respects except that the essential fatty acid component comprises 0.02% DHA, by weight of the composition.
(§5) Throughout the study, the puppies are fed their respective compositions ad libitum. Treats are utilized for training purposes; the treats which are used are PURINA® Puppy Canned Formula.
The study utilizes three doors of identical size and shape. Each puppy is randomly assigned to one of three doors along with a random symbol (circle or square) for location training. The objective of the study is to train the puppy to reach the “correct” door, i.e. the door bearing the shape which is assigned to the respective puppy. A box is marked with tape in front of each door. […]

[3] = system: purebred beagle puppies; test: Three-door multiple shape testing (symbol as the cue); conditions: for puppies that passed the test on their initial testing: pass = at least 80% correct
Experimental: as §1, §3, §4, §5
Following location training, each puppy receives two days of shape training, wherein the study shapes are randomly placed on different doors simultaneously. The objective is to determine whether the puppy learns that the symbol is associated with the treat target, not the door location. Following this training, each puppy received two testing sessions to determine ability to identify the symbol as the cue. A puppy is determined to pass if at least 80% of the test is correct. Puppies that failed are given two additional days of training and are retested. A puppy is given a maximum of three attempts to pass the multiple shape testing.
Each puppy is randomly assigned a shape of either a square or a circle. The “correct” door is the door bearing the shape which is assigned to the puppy; the location of the “correct” door is systematically modified throughout the study such that the puppy must learn to identify with the shape rather than the location of the door. The puppies are trained for several days in order to learn the process of choosing the “correct” door within a time period of two minutes. Training occurs with various learning procedures, including placing a trail of treats in front of the “correct” door.
After several days of training, the learning procedures are eliminated and the puppy performs without intervention. The puppy is given two minutes to reach the “correct” door. If the puppy fails to reach the “correct” door within the two minute time period, the puppy receives an incorrect score for that attempt. If the puppy reaches the “correct” door within the two minute time period, the puppy receives a correct score for that attempt.

[4] = Group 1 (n=3): food composition about 0.14% DHA
[5] = Group 2 (n=3): food composition about 0.08% DHA
[6] = Group 3 (n=4): food composition about 0.02% DHA
[7] = Group 1 (n=6): food composition 0.18% DHA ad libitum
[8] = Group 2 (n=6): food composition 0.02% DHA ad libitum

CC/C=C\C/C=C\C/C=C\C/C=C\C/C=C\C/C=C\CCC(=O)O [DHA, docosahexaenoic acid]
puppies that achieved a single success criteria [1, 4]: 100%
puppies that achieved two success criteria [1, 4]: 66%
puppies that achieved a single success criteria [1, 5]: 66%
puppies that achieved two success criteria [1, 5]: 0%
puppies that achieved a single success criteria [1, 6]: 50%
puppies that achieved two success criteria [1, 6]: 0%
correct scores in locating the assigned location (door) [2]: greater than 90%
puppies that passed following additional training days [3, 7]: 75%
puppies that passed the test on their initial testing [3, 7]: 50%
puppies that passed following additional training days [3, 8]: 45%
puppies that passed the test on their initial testing [3, 8]: 16%
